# Like-named read-outs stand apart in the source and are kept apart here. Marks after values point to notes of the source that are not given here.
# Key:
# Assay type in all cases: in vivo
# [1] = test system: C57BL/6J mice; assay: Antifeeding activity (high fat diet intake up to 4 hours); details: Mus musculus, male C57BL/6J mice, 5 mg/kg oral, food ingested up to 4 hours, read-out: Antifeeding rate (5 mg/kg)
# [2] = test system: ICR mice; assay: Triglyceride (TG) in blood plasma increase-inhibiting action due to lipid administration; details: Mus musculus; male ICR mice, 5 mg/kg oral, lipid (Intralipos 20%) after 30 minutes, plasma TG 2 hours after lipid; read-out: Inhibiting rate of TG-increase in blood plasma (5 mg/kg)
# Procedure, shortened: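 Male ICR mice (6–9 weeks), fasted overnight, dosed orally with compound in 0.2% CMC; oral lipid emulsion (10 mL/kg) 30 min later. Plasma TG from tail vein before and 2 h after lipid load; rise in TG expressed as percent inhibition versus vehicle group.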
# [3] = test system: KK-Ay mice; assay: Weight gain-inhibiting action, hypoglycemic effect, insulin in blood plasma lowering action in KK-Ay mice; details: male KK-Ay mice, high fat diet, 2 weeks; for inhibition in vivo at 30 mg/kg: Mus musculus, 336 h, 30 mg/kg/day oral
# Method: To 8 weeks-old male KK-Ay mice were provided high fat diet (Oriental Yeast Co., Ltd, 60 cal % fat), and Test compound suspended in 0.2% carboxymethylcellulose solution was orally administered once a day. Oral administration was continued for 2 weeks, and a weight gain-inhibiting rate of the Test compound was calculated by using a weight gain amount of the solvent control group during the test period as 100%. After final administration, the mice were fasted overnight, and blood was collected from tail vein. Measurement of a blood-sugar level was carried out by using glucose Cα Test Wako (Wako Pure Chemical Industries, Ltd.), and measurement of insulin in blood plasma was carried out by using a mouse insulin measurement kit (Morinaga Institute of Biological Science, Inc.).
# [4] = read-out: Hypoglycemic action (30 mg/kg/day)
# [5] = read-out: Insulin in blood plasma-lowering action (30 mg/kg/day)
# [6] = read-out: Weight gain-inhibiting action (30 mg/kg/day)
# [7] = administration dose of 10 mg/kg/day oral
Structure (SMILES),inhibition in vivo at 5 mg/kg [1],inhibition in vivo at 5 mg/kg [2],"inhibition in vivo at 30 mg/kg [3, 4]","inhibition in vivo at 30 mg/kg [3, 5]","inhibition in vivo at 30 mg/kg [3, 6]","Hypoglycemic action [3, 7]","Insulin in blood plasma-lowering action [3, 7]","Weight gain-inhibiting action [3, 7]"
"Cc1cc(OCC(C)(C)C(=O)O)ncc1-c1ccc(-c2ncc(C(F)(F)F)[nH]2)nc1 [Example 61-3), 2,2-dimethyl-3-({4-methyl-6′-[5-(trifluoromethyl)-1H-imidazol-2-yl]-3,3′-bipyridin-6-yl}oxy)propanoic acid]",80%,68%,60%,77%,90%,–,–,–
"Cc1cc(OCC(C)(C)C(=O)O)ncc1-c1ccc(-c2ncc(C(F)(F)F)[nH]2)c(F)c1 [Example 62-3), 3-[(5-{3-fluoro-4-[5-(trifluoromethyl)-1H-imidazol-2-yl]phenyl}-4-methylpyridin-2-yl)oxy]-2,2-dimethylpropanoic acid]",63%,85%,80%,95%,161%,–,–,–
"Cc1cc(OCC(C)(C)C(=O)O)ncc1-c1ccc(-c2ncc(C(F)(F)F)[nH]2)c(Cl)c1 [Example 63-3), 3-[(5-{3-chloro-4-[5-(trifluoromethyl)-1H-imidazol-2-yl]phenyl}-4-methylpyridin-2-yl)oxy]-2,2-dimethylpropanoic acid]",83%,60%,77%,90%,115%,–,–,–
CC(C)(COc1ccc(-c2ccc(-c3ncc(C(F)(F)F)[nH]3)nc2)cn1)C(=O)O [Example 66],76%,83%,10%,38%,46%,–,–,–
CC(C)(COc1ccc(-c2ccc(-c3ncc(C(F)(F)C(F)(F)F)[nH]3)cn2)cc1)C(=O)O [Example 69],87%,85%,–,–,–,61%^#,37%^#,43%^#
Cc1cc(OCC2(C(=O)O)CCC2)ccc1-c1ccc(-c2ncc(C(F)(F)F)[nH]2)cn1 [Example 70],59%,67%,52%,27%,45%,–,–,–
Cc1cc(OCC(C)(C)C(=O)O)ncc1-c1ccc(-c2ncc(C(F)(F)F)[nH]2)cn1 [Example 72],65%,85%,38%,28%,43%,–,–,–
Cc1cc(OCC(C)(C)C(=O)O)ncc1-c1ccc(-c2ncc(C(F)(F)F)[nH]2)cc1 [Example 73],82%,88%,40%,69%,62%,–,–,–
Cc1nc(OCC(C)(C)C(=O)O)ccc1-c1ccc(-c2ncc(C(F)(F)F)[nH]2)cc1 [Example 74],60%,50%,56%,51%,47%,–,–,–
CC(C)(COc1ccc(-c2ccc(-c3ncc(C(F)(F)F)[nH]3)c(F)c2)cn1)C(=O)O [Example 76],61%,78%,65%,81%,69%,–,–,–
Cc1cc(OCC(C)(C)C(=O)O)ncc1-c1ccc(-c2ncc(C(F)(F)F)[nH]2)c(C)c1 [Example 77],65%,75%,60%,65%,–,–,–,–
CC(C)(COc1ncc(-c2ccc(-c3ncc(C(F)(F)F)[nH]3)c(F)c2)cc1F)C(=O)O [Example 84],64%,75%,65%,76%,48%,–,–,–
"CC(C)(COc1ccc(-c2ccc(-c3ncc(C(F)(F)F)[nH]3)nn2)cc1)C(=O)O [Example 87-7), 2,2-dimethyl-3-(4-{6-[4-(trifluoromethyl)-1H-imidazol-2-yl]pyridazin-3-yl}phenoxy)-propanoic acid]",59%,57%,35%,19%,22%,–,–,–
"CC(C)(COc1cnc(-c2ccc(-c3nc(C(F)(F)F)c[nH]3)cc2)cn1)C(=O)O [Example 89-2), 2,2-dimethyl-3-[(5-{4-[4-(trifluoromethyl)-1H-imidazol-2-yl]phenyl}pyrazin-2-yl)oxy]-propanoic acid]",75%,52%,68%,88%,63%,–,–,–
CC(C)(COc1cnc(-c2ccc(-c3ncc(C(F)(F)F)[nH]3)nc2)cn1)C(=O)O [Example 92],66%,74%,63%,58%,60%,–,–,–
"Cc1cc(OCC(C)(C)C(=O)O)ncc1-c1cnc(-c2ncc(C(F)(F)F)[nH]2)cn1 [Example 95-6), 2,2-dimethyl-3-[(4-methyl-5-{5-[5-(trifluoromethyl)-1H-imidazol-2-yl]pyrazin-2-yl}pyridin-2-yl)oxy]propanoic acid]",83%,70%,66%,58%,75%,–,–,–
"Cc1cc(OCC(C)(C)C(=O)O)ncc1-c1ccc(-c2ncc(CC3CC3)[nH]2)c(F)c1 [Example 96-2), 3-[(5-{4-[5-(cyclopropylmethyl)-1H-imidazol-2-yl]-3-fluorophenyl}-4-methylpyridin-2-yl)oxy]-2,2-dimethylpropanoic acid]",58%,48%,66%,71%,75%,–,–,–
Cc1cc(OCC(C)(C)C(=O)O)ncc1-c1cnc(-c2ncc(C(F)(F)F)[nH]2)c(F)c1 [Example 107],57%,62%,57%,58%,48%,–,–,–
Cc1cc(OCC(C)(C)C(=O)O)ncc1-c1cnc(-c2ncc(C(F)(F)F)[nH]2)c(Cl)c1 [Example 112],52%,67%,49%,61%,47%,–,–,–
Cc1cc(OCC(C)(C)C(=O)O)ncc1-c1cnc(-c2ncc(C(F)(F)F)[nH]2)c(C)c1 [Example 114],59%,64%,48%,60%,45%,–,–,–
Cc1cc(OCC(C)(C)C(=O)O)ncc1-c1ccc(-c2ncc(CC(C)C)[nH]2)nc1 [Example 117],55%,57%,36%,35%,31%,–,–,–
Cc1cc(OCC(C)(C)C(=O)O)ncc1-c1ccc(-c2ncc(CC(C)C)[nH]2)c(F)c1 [Example 119],51%,67%,40%,28%,36%,–,–,–

# From patent publication US9302996B2, “Continuous arycyclic compound” (MITSUBISHI TANABE PHARMA CORPORATION, priority 2010, dated 2016)
